Common to all, as to assay type: cell-based
Assay [1] relates to MMP. The assay can be described thus: PMA-induced MMP production in fibroblasts, quantified (FIG. 1). The note with it: 5-hour incubation, control about 25, PMA alone about 70 ng/mL. As to the method:
(§1) The experiments are conducted under two kinds of conditions, wherein one uses phorbol 12-myristate 13-acetate (PMA) to induce skin-cells to produce MMP while the other uses UVB to induce skin-cells to produce MMP and the inhibitory effects of the green algae extract of the present invention on MMP produced under both conditions are tested.
As known by those skilled in the art, PMA is an activator of protein kinase C (PKC) in fibroblasts, and PKC is an activator of MMP. Further, unduly activated MMP can break collagens as well as elastins in fibroblasts and in turn lead to aged skin. In the experiment shown in FIG. 1, Rectangle (1) belongs to a control group; Rectangle (2) belongs to a comparison group; and Rectangles (3), (4), (5) and (6) belong to an experimental group. A 5-hour incubation is conducted in each of the groups.

Assay [2] relates to MMP. The assay can be described thus: PMA-induced MMP in fibroblasts, Western blotting (FIG. 2). The note with it: 100 nM PMA + 0.4 nM GM. An excerpt:
The images in the upper picture represent MMP expressions while the images in the lower picture are provided as a house keeping gene expressed protein.

The test system of assay [3] is MMP3. The assay can be described thus: PMA-induced gene expression in fibroblasts, RT-PCR (FIG. 4). The note with it: 100 nM PMA + 0.4 nM GM. An excerpt:
(§2) The […] inhibitor proteins TIMP1 and TIMP3 exist in fibroblasts to counterbalance metalloproteinases MMP1 and MMP3.

Assay [4] concerns TIMP1. The assay is described as above. The note with it: 100 nM PMA + 0.4 nM GM.
Source text: as §2

The test system of assay [5] is TIMP3. The description is as above. The note with it: 100 nM PMA + 0.4 nM GM.
Source text: as §2

The subject of assay [6] is MMP. The assay can be described thus: UVB-induced MMP in fibroblasts, quantified (FIG. 5). The settings on record: no UV about 3.5, UV alone about 6.0 ng/mL. The procedure:
as §1

Consider `CNC(=O)[C@H](Cc1c[nH]c2ccccc12)NC(=O)[C@@H](CC(=O)NO)CC(C)C` [GM], for which the “average content of MMP” value in assay [1] (100 nM PMA + 0.4 nM GM) is recorded as “about 50 ng/mL”. Moreover, the “MMP activity (Western blot) compared with PMA alone” value in assay [2] is on record as “slightly inhibits”. For the same molecule, the “MMP3 mRNA expression (RT-PCR) compared with PMA alone” value in assay [3] is “less”. For the same molecule, the “TIMP1 genetic expression (RT-PCR) compared with PMA alone” value in assay [4] was “fails to significantly enhance”. Besides, the “TIMP3 genetic expression (RT-PCR) compared with PMA alone” value in assay [5] was “fails to significantly enhance”.
Turning to `O=C1O[C@H]([C@@H](O)CO)C(O)=C1O` [Vitamin C], the figures for the “average content of MMP” value in assay [1] (100 nM PMA + 0.15 nM Vitamin C) and in assay [6] (0.15 mM Vitamin C added before 1.5 hours UV) were “about 60 ng/mL” and 9.0 ng/mL, respectively.
On to Vitamin E, for which the “average content of MMP” value in assay [6] (25 uM Vitamin E added before 1.5 hours UV) was determined as 6.0 ng/mL.

The values above are taken from US20090142370A1, “Method for preventing skin-cellular aging by using green algae extract and cosmetic composition containing green algae extract” (priority 2007, published 2009).
